Measurements reported in ChEMBL document CHEMBL1201862, “PubChem BioAssay data set” (2004).
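Results reflect a 48-hour exposure of cells in 96-well plates to compound at five concentrations. GI50 is the concentration that inhibits growth by half.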 Active and inactive are the calls of the source. No stated cut-off is given here; in the data, active = GI50 up to about 1.1 µM and inactive = higher.

Key:
Test in all cases: growth of human tumour cells (NCI), 48 h
T47D = test system: T47D
COLO 205 = test system: COLO 205
786-0 = test system: 786-0
SR = test system: SR
KM12 = test system: KM12
MDA-MB-435 = test system: MDA-MB-435
SK-OV-3 = test system: SK-OV-3
PC-3 = test system: PC-3
RPMI-8226 = test system: RPMI-8226
MCF7 = test system: MCF7
MDA-MB-231 = test system: MDA-MB-231
UO-31 = test system: UO-31
MDA-N = test system: MDA-N
Hs-578T = test system: Hs-578T
BT-549 = test system: BT-549
TK-10 = test system: TK-10
DU-145 = test system: DU-145
NCI/ADR-RES = test system: NCI/ADR-RES
CCRF-CEM = test system: CCRF-CEM

Measured: GI50

CN(C)C/C=C(/c1ccc(Br)cc1)c1cccnc1
inactive: T47D 58.7 µM | COLO 205 16.6 µM | 786-0 94 µM | SR 34.8 µM | KM12 74.1 µM | MDA-MB-435 32.9 µM | SK-OV-3 71.1 µM | PC-3 > 100 µM | RPMI-8226 34.7 µM | MCF7 63.8 µM | MDA-MB-231 32.7 µM | UO-31 42.8 µM | MDA-N 38.3 µM | Hs-578T 48 µM | BT-549 79.4 µM | TK-10 65.9 µM | DU-145 > 100 µM | NCI/ADR-RES 69.5 µM

CCOC(=O)CNC(=O)C(CCC(=O)N(C)O)NC(=O)CCC(N)C(=O)O (stereo not drawn)
inactive: T47D > 100 µM | COLO 205 > 100 µM | 786-0 > 100 µM | KM12 > 100 µM | CCRF-CEM > 100 µM | MDA-MB-435 > 100 µM | SK-OV-3 > 100 µM | PC-3 > 100 µM | RPMI-8226 > 100 µM | MCF7 > 100 µM | MDA-MB-231 > 100 µM | UO-31 > 100 µM | MDA-N > 100 µM | Hs-578T > 100 µM | BT-549 > 100 µM | TK-10 > 100 µM | DU-145 > 100 µM | NCI/ADR-RES > 100 µM

CO/C(=N/N1CC1C(F)(F)F)c1ccncc1 (stereo not drawn)
inactive: T47D > 100 µM | COLO 205 > 100 µM | SR > 100 µM | KM12 > 100 µM | CCRF-CEM 88.1 µM | MDA-MB-435 > 100 µM | SK-OV-3 54.7 µM | PC-3 > 10 µM | RPMI-8226 > 100 µM | MCF7 > 100 µM | MDA-MB-231 > 100 µM | UO-31 46.8 µM | MDA-N > 100 µM | Hs-578T > 100 µM | BT-549 43.3 µM | DU-145 > 100 µM | NCI/ADR-RES > 100 µM

Cc1ccc([N+](=O)[O-])cc1/N=N/C(=O)NNc1cc([N+](=O)[O-])ccc1C
inactive: T47D 31.3 µM | COLO 205 33.1 µM | SR 52.8 µM | KM12 23.4 µM | CCRF-CEM 10 µM | MDA-MB-435 22.2 µM | SK-OV-3 11.1 µM | PC-3 17.6 µM | RPMI-8226 30.4 µM | MCF7 26.4 µM | MDA-MB-231 15.5 µM | UO-31 23.6 µM | MDA-N 26.6 µM | Hs-578T 26.4 µM | BT-549 22.5 µM | DU-145 35.3 µM | NCI/ADR-RES 27.9 µM

C1CCC2(CC1)O[C@@H]1[C@@H](O2)[C@@H](O[C@H]2O[C@@H]3COC4(CCCCC4)O[C@H]3[C@@H]3OC4(CCCCC4)O[C@@H]23)O[C@@H]2COC3(CCCCC3)O[C@@H]12
inactive: T47D > 100 µM | COLO 205 > 100 µM | 786-0 > 100 µM | KM12 > 100 µM | CCRF-CEM > 100 µM | MDA-MB-435 > 100 µM | SK-OV-3 > 100 µM | PC-3 > 100 µM | RPMI-8226 36.6 µM | MCF7 > 100 µM | MDA-MB-231 > 100 µM | UO-31 > 100 µM | MDA-N > 100 µM | Hs-578T > 100 µM | BT-549 > 100 µM | TK-10 > 100 µM | DU-145 > 100 µM | NCI/ADR-RES > 100 µM

CCN(CC)CCN(C(=O)C(C)(C)C)c1ccccc1N
inactive: 786-0 > 100 µM | SR > 100 µM | KM12 > 100 µM | CCRF-CEM > 100 µM | SK-OV-3 > 100 µM | PC-3 > 100 µM | RPMI-8226 > 100 µM | MCF7 > 100 µM | UO-31 > 100 µM | MDA-N > 100 µM | BT-549 > 100 µM | TK-10 > 100 µM | DU-145 > 100 µM | NCI/ADR-RES > 100 µM

c1ccc(/N=C2/SC3=Nc4cccc5cccc(c45)N3/C2=N/c2ccccc2)cc1
inactive: T47D > 100 µM | COLO 205 > 100 µM | SR > 100 µM | KM12 > 100 µM | CCRF-CEM 54.1 µM | MDA-MB-435 > 100 µM | SK-OV-3 > 100 µM | PC-3 > 100 µM | RPMI-8226 > 100 µM | MCF7 > 100 µM | MDA-MB-231 > 100 µM | UO-31 > 100 µM | MDA-N > 100 µM | Hs-578T > 100 µM | BT-549 > 100 µM | DU-145 > 100 µM | NCI/ADR-RES > 100 µM

CSC1NC(c2ccccc2)=C(C#N)C(=O)N1C1OCC(OC(C)=O)C(OC(C)=O)C1OC(C)=O (stereo not drawn)
inactive: COLO 205 > 100 µM | 786-0 > 100 µM | SR > 100 µM | KM12 > 100 µM | MDA-MB-435 > 100 µM | SK-OV-3 > 100 µM | PC-3 > 100 µM | RPMI-8226 > 100 µM | MCF7 > 100 µM | MDA-MB-231 > 100 µM | UO-31 > 100 µM | MDA-N > 100 µM | Hs-578T > 100 µM | BT-549 > 100 µM | TK-10 > 100 µM | DU-145 > 100 µM | NCI/ADR-RES > 100 µM

Clc1ccc2c(c1)CC1C[N+]3=C(CCCCC3)C1=C2 (stereo not drawn)
inactive: T47D 29.6 µM | COLO 205 28.9 µM | 786-0 > 100 µM | KM12 50.5 µM | CCRF-CEM > 100 µM | MDA-MB-435 59.2 µM | SK-OV-3 > 100 µM | PC-3 42.1 µM | MCF7 64 µM | MDA-MB-231 33 µM | UO-31 > 100 µM | MDA-N 94.2 µM | Hs-578T 85.3 µM | BT-549 26.5 µM | TK-10 69.2 µM | DU-145 > 100 µM | NCI/ADR-RES > 100 µM

O=C(O)CCC(NC(=O)c1ccc(Nc2nc3cc(C(F)(F)F)ccc3nc2C(=O)O)cc1)C(=O)O (stereo not drawn)
inactive: T47D 48.3 µM | COLO 205 > 100 µM | 786-0 > 100 µM | SR > 100 µM | KM12 > 100 µM | CCRF-CEM > 100 µM | MDA-MB-435 > 100 µM | PC-3 > 100 µM | RPMI-8226 > 100 µM | MCF7 > 100 µM | MDA-MB-231 > 100 µM | UO-31 > 100 µM | MDA-N > 100 µM | Hs-578T > 100 µM | TK-10 > 100 µM | DU-145 > 100 µM | NCI/ADR-RES > 100 µM

CCOC(=O)c1nc2cc(C(F)(F)F)ccc2nc1Oc1ccc(F)cc1
inactive: T47D 5.9 µM | COLO 205 > 100 µM | 786-0 > 100 µM | SR > 100 µM | KM12 > 100 µM | CCRF-CEM > 100 µM | MDA-MB-435 > 100 µM | PC-3 > 100 µM | RPMI-8226 > 100 µM | MCF7 > 100 µM | MDA-MB-231 > 100 µM | UO-31 61.5 µM | MDA-N > 100 µM | Hs-578T > 100 µM | BT-549 > 100 µM | TK-10 > 100 µM | DU-145 > 100 µM | NCI/ADR-RES > 100 µM
